Test results published in patent publication US12076328B2 (priority 2020, dated 2024).

Assays:
[1] = Oral pharmacokinetic analysis in rats; type: in vivo; conditions: niclosamide dose 10 mg/kg by oral gavage, n = 5
Procedure: The oral pharmacokinetic analysis was conducted at Pharmaron (Ningbo, China). The study protocol was approved and conducted in accordance with the Institutional Animal Care and Use Committee (IACUC) guidelines at Pharmaron. (IACUC; Protocol Number AUP-PK-R-06012019). […] The powders were blended by mortar and pestle and loaded into the capsules using the capsule filling funnel for size 9 (Torpac, Fairfield, NJ, USA). […] Two mobile phases were used. The mobile phase A was a 0.1% formic acid aqueous solution, and the mobile phase B was a mixture of 5% water and 95% acetonitrile (0.1% formic acid). Then, 50 μL of plasma with 5 μL of methanol were added to 200 μL of methanol containing an internal standard mixture for protein precipitation. The samples were vortexed for 30 s and underwent centrifugation for 15 min at 4000 rpm and […]. Thereafter, the supernatant was diluted three times with water, and 2 μL were injected into the HPLC. Furthermore, the resultant particles were subjected to dissolution and the resultant supernatants after centrifugation were analyzed.

[2] = Pharmacokinetic evaluation of milled niclosamide extrudate in CD-1 mice; type: in vivo; conditions: 500 mg/kg suspended in 0.5% Methocel A4M
SARS-CoV = conditions: Vero cells infected by SARS-CoV (2002 pandemic); cited from earlier work
COVID-19 = conditions: Vero E6 cells; cited from earlier work
SARS-CoV-2 = type: cell-based; conditions: assumed that the wet tissue has a density

Compound: O=C(Nc1ccc([N+](=O)[O-])cc1Cl)c1cc(Cl)ccc1O
- AUCInf [1]: 188 ng·h/mL
- AUClast [1]: 168 ng·h/mL
- AUC—% Extrap_obs [1]: 8.4%
- Cmax [1]: 48.3 ng/mL
- MRTInf_obs [1]: 3.56 h
- T1/2 [1]: 1.00 h
- Tmax [1]: 3.60 h

Compound: O=C(Nc1ccc([N+](=O)[O-])cc1Cl)c1cc(Cl)ccc1O [Crystalline Nic]
- AUC0-last [2]: 1454.6 ng·h/mL
- Cmax [2]: 661.7 ng/mL
- Tmax [2]: 30 min

Compound: CCN(CC)CCCC(C)Nc1ccnc2cc(Cl)ccc12 (stereo not shown) [chloroquine]
- IC50 (SARS-CoV): 4.4 µM
- IC50 (COVID-19): 1130 nM

Compound: O=C(Nc1ccc([N+](=O)[O-])cc1Cl)c1cc(Cl)ccc1O [niclosamide, 5-Chloro-N-(2-chloro-4-nitrophenyl)salicylamide]
- Estimated niclosamide IC50 for SARS-CoV-2 (SARS-CoV-2): 0.09156 μg/g of wet tissue
